This is an account of results in ChEMBL document CHEMBL1141209, “Carbonic anhydrase inhibitors: inhibition of the human isozymes I, II, VA, and IX with a library of substituted difluoromethanesulfonamides” (Bioorg Med Chem Lett, 2005).

The target of assay [1] is Carbonic anhydrase 2 (Homo sapiens, UniProt P00918).
Description: Inhibition of recombinant human cytosolic isozyme CA II
In assay [2] the target is Carbonic anhydrase 9 (Homo sapiens, UniProt Q16790).
Description: Inhibition of cloned human transmembrane, tumor-associated isozyme CA IX
For assay [3], the target named is Carbonic anhydrase 1 (Homo sapiens, UniProt P00915).
Description: Inhibition of recombinant human cytosolic isozyme CA I
Assay [4] has as its target Carbonic anhydrase 5A, mitochondrial (Homo sapiens, UniProt P35218).
Description: Inhibition of recombinant human mitochondrial isozyme CA VA

As a reminder, the Ki is a measure of affinity in units of concentration, obtained from inhibition or displacement. Read a low Ki as a stronger hold on the target.

Sequence of Carbonic anhydrase 1 (P00915 whole entry): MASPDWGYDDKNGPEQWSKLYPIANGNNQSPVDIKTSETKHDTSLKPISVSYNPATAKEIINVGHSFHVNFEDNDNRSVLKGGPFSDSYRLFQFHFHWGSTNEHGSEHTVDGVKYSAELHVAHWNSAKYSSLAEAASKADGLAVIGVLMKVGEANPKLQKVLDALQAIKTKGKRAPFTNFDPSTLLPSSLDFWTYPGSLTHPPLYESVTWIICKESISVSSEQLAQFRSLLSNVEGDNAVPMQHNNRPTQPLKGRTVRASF
Sequence of Carbonic anhydrase 5A, mitochondrial (P35218 whole entry): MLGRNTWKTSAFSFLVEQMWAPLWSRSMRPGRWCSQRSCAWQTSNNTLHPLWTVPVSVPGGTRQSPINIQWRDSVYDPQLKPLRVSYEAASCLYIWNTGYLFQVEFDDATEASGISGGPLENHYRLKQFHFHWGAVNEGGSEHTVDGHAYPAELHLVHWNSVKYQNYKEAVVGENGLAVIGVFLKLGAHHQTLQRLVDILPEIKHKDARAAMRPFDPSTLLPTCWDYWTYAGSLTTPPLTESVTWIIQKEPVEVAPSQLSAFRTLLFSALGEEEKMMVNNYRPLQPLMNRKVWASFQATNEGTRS

On to `Cc1cc(=O)oc2cc(OS(N)(=O)=O)ccc12`, for which, in assay [1], the affinity corresponds to a Ki of 25 nM.
Regarding `C[C@]12CC[C@@H]3c4ccc(C(F)(F)S(N)(=O)=O)cc4CC[C@H]3[C@@H]1CCC2=O`, the Ki in assay [2] is 1730 nM; in assay [3], 96 nM; in assay [1] it was 670 nM; in assay [4], 129 nM.
For `C[C@]12CC[C@@H]3c4ccc(CS(N)(=O)=O)cc4CC[C@H]3[C@@H]1CCC2=O`, in that order: 208 nM, 116 nM, 80 nM and 1460 nM.
In turn, `Cc1cc(=O)oc2cc(C(F)(F)S(N)(=O)=O)ccc12` displayed a Ki in assay [2] of 195 nM.
`Cc1cc(=O)oc2cc(CS(N)(=O)=O)ccc12`: the Ki in assay [2] turned out to be 240 nM.
The same measure, in the same setting: in the case of `Cc1ccc(C(F)(F)S(N)(=O)=O)cc1` it was 250 nM; in that of `NS(=O)(=O)C(F)(F)c1ccccc1Br`, 9280 nM; in that of `NS(=O)(=O)C(F)(F)c1cccc(Br)c1`, 1490 nM.
For `NS(=O)(=O)C(F)(F)c1ccc([N+](=O)[O-])cc1`, in assay [2], the inhibition constant (Ki) amounted to 2420 nM.
`NS(=O)(=O)C(F)(F)c1ccc(Br)cc1` displayed an inhibitory constant (Ki) in assay [2] of 7730 nM.
In the case of `NS(=O)(=O)C(F)(F)c1ccccc1` [PHENYLDIFLUOROMETHANESULFONAMIDE], the Ki in assay [2] worked out at 8500 nM.
Turning to `NS(=O)(=O)Cc1ccccc1` [PHENYLMETHANESULFONAMIDE], the Ki in assay [2] amounted to 9300 nM. The Ki values of the last two molecules are within 1.5-fold of each other.
